EC50 data for one compound are collected here from BindingDB's records for doi:10.1016/j.ejmech.2017.07.016 (South Dakota State University, 2017).

This test is described as follows: Antagonist activity at human CRFR1 expressed in HEK293 cells assessed as inhibition of sauvagine-induced cAMP accumulation by measuring sauvagine EC50 at 1 uM after 30 mins (Rvb = 0.203 nM). A general note: cAMP levels reflect the balance of adenylyl cyclase and phosphodiesterase activity.

A word on the EC50: it is the midpoint of the concentration-response curve. With `CCCCN(CC)c1nc(C)nc2c1sc(=N)n2-c1c(C)cc(C)cc1C`, the concentration giving a half-maximal response (EC50) turned out to be 1.1 nM.
